Laboratory results: ChEMBL document CHEMBL3045321, “Sensitivity to iprodione, difenoconazole and fludioxonil of Rhizoctonia cerealis isolates collected from wheat in China” (Crop Prot, 2011)
Converted amounts (≈) assume the structure as drawn. The source made the active and inactive calls. No cut-off for these calls is given here.

Experiments:
Format in all cases: functional, organism-based
Ceratobasidium cereale [1] = assay: Antifungal activity against Ceratobasidium cereale iprodione-sensitive wheat field isolate HQ31 assessed as mycelial growth inhibition in potato dextrose agar media at 25 degC measured after 3 days; details: isolate HQ31, 72 h
Ceratobasidium cereale [2] = assay: Antifungal activity against Ceratobasidium cereale two generation induced iprodione-resistant wheat field isolate HD10R assessed as mycelial growth inhibition in potato dextrose agar media at 25 degC measured after 3 days; details: 72 h
Ceratobasidium cereale [3] = assay: Antifungal activity against Ceratobasidium cereale two generation induced iprodione-resistant wheat field isolate HQ12R assessed as mycelial growth inhibition in potato dextrose agar media at 25 degC measured after 3 days; details: 72 h
Ceratobasidium cereale [4] = assay: Antifungal activity against Ceratobasidium cereale two generation induced iprodione-resistant wheat field isolate HQ3R assessed as mycelial growth inhibition in potato dextrose agar media at 25 degC measured after 3 days; details: 72 h
Ceratobasidium cereale [5] = assay: Antifungal activity against Ceratobasidium cereale two generation induced iprodione-resistant wheat field isolate HQ31R assessed as mycelial growth inhibition in potato dextrose agar media at 25 degC measured after 3 days; details: 72 h
Ceratobasidium cereale [6] = assay: Antifungal activity against Ceratobasidium cereale iprodione-sensitive wheat field isolate HL64 assessed as mycelial growth inhibition in potato dextrose agar media at 25 degC measured after 3 days; details: isolate HL64, 72 h
Ceratobasidium cereale [7] = assay: Antifungal activity against Ceratobasidium cereale iprodione-sensitive wheat field isolate HD10 assessed as mycelial growth inhibition in potato dextrose agar media at 25 degC measured after 3 days; details: isolate HD10, 72 h
Ceratobasidium cereale [8] = assay: Antifungal activity against Ceratobasidium cereale iprodione-sensitive wheat field isolate HQ12 assessed as mycelial growth inhibition in potato dextrose agar media at 25 degC measured after 3 days; details: isolate HQ12, 72 h
Ceratobasidium cereale [9] = assay: Antifungal activity against Ceratobasidium cereale iprodione-sensitive wheat field isolate HQ3 assessed as mycelial growth inhibition in potato dextrose agar media at 25 degC measured after 3 days; details: isolate HQ3, 72 h
Ceratobasidium cereale [10] = assay: Antifungal activity against Ceratobasidium cereale two generation induced iprodione-resistant wheat field isolate HN49R assessed as mycelial growth inhibition in potato dextrose agar media at 25 degC measured after 3 days; details: 72 h
Ceratobasidium cereale [11] = assay: Antifungal activity against Ceratobasidium cereale iprodione-sensitive wheat field isolate HN49 assessed as mycelial growth inhibition in potato dextrose agar media at 25 degC measured after 3 days; details: isolate HN49, 72 h
Ceratobasidium cereale [12] = assay: Antifungal activity against Ceratobasidium cereale two generation induced iprodione-resistant wheat field isolate HL64R assessed as mycelial growth inhibition in potato dextrose agar media at 25 degC measured after 3 days; details: 72 h
Ceratobasidium cereale [13] = assay: Antifungal activity against Ceratobasidium cereale wheat field isolate assessed as mycelial growth inhibition at 25 degC measured after 3 days; details: 72 h
Ceratobasidium cereale [14] = assay: Antifungal activity against Ceratobasidium cereale two generation induced iprodione-resistant wheat field isolate HN100R assessed as mycelial growth inhibition in potato dextrose agar media at 25 degC measured after 3 days; details: 72 h
Ceratobasidium cereale [15] = assay: Antifungal activity against Ceratobasidium cereale iprodione-sensitive wheat field isolate HN100 assessed as mycelial growth inhibition in potato dextrose agar media at 25 degC measured after 3 days; details: isolate HN100, 72 h
Ceratobasidium cereale [16] = assay: Antifungal activity against Ceratobasidium cereale wheat field isolate assessed as mycelial growth inhibition at 10 ug/mL in potato dextrose agar media 25 degC measured after 5 days

Compound | EC50 (Ceratobasidium cereale [1]) [µg/mL] | EC50 (Ceratobasidium cereale [2]) [µg/mL] | EC50 (Ceratobasidium cereale [3]) [µg/mL] | EC50 (Ceratobasidium cereale [4]) [µg/mL] | EC50 (Ceratobasidium cereale [5]) [µg/mL] | EC50 (Ceratobasidium cereale [6]) [µg/mL] | EC50 (Ceratobasidium cereale [7]) [µg/mL] | EC50 (Ceratobasidium cereale [8]) [µg/mL] | EC50 (Ceratobasidium cereale [9]) [µg/mL] | EC50 (Ceratobasidium cereale [10]) [µg/mL] | EC50 (Ceratobasidium cereale [11]) [µg/mL] | EC50 (Ceratobasidium cereale [12]) [µg/mL] | EC50 (Ceratobasidium cereale [13]) [µg/mL] | EC50 (Ceratobasidium cereale [14]) [µg/mL] | EC50 (Ceratobasidium cereale [15]) [µg/mL] | Activity (Ceratobasidium cereale [16])
CC1COC(Cn2cncn2)(c2ccc(Oc3ccc(Cl)cc3)cc2Cl)O1 (stereo unspecified) [DIFENOCONAZOLE] | 0.037 (≈ 0.0911 µM) | 0.07 (≈ 0.172 µM) | 0.092 (≈ 0.226 µM) | 0.034 (≈ 0.0837 µM) | 0.06 (≈ 0.148 µM) | 0.032 (≈ 0.0788 µM) | 0.066 (≈ 0.162 µM) | 0.082 (≈ 0.202 µM) | 0.04 (≈ 0.0985 µM) | 0.074 (≈ 0.182 µM) | 0.07 (≈ 0.172 µM) | 0.057 (≈ 0.14 µM) | 0.062 (≈ 0.153 µM) | 0.01 (≈ 0.0246 µM) | 0.095 (≈ 0.234 µM) | –
CC(C)NC(=O)N1CC(=O)N(c2cc(Cl)cc(Cl)c2)C1=O [IPRODIONE] | 0.35 (≈ 1.06 µM) | > 100 | > 100 | > 100 | > 100 | 0.372 (≈ 1.13 µM) | 0.46 (≈ 1.39 µM) | 0.725 (≈ 2.2 µM) | 0.357 (≈ 1.08 µM) | > 100 | 0.481 (≈ 1.46 µM) | > 100 | 0.419 (≈ 1.27 µM) | > 100 | 0.249 (≈ 0.754 µM) | Active
N#Cc1c[nH]cc1-c1cccc2c1OC(F)(F)O2 [FLUDIOXONIL] | 0.026 (≈ 0.105 µM) | > 100 | > 100 | > 100 | > 100 | 0.022 (≈ 0.0886 µM) | 0.05 (≈ 0.201 µM) | 0.032 (≈ 0.129 µM) | 0.015 (≈ 0.0604 µM) | > 100 | 0.026 (≈ 0.105 µM) | > 100 | 0.033 (≈ 0.133 µM) | > 100 | 0.024 (≈ 0.0967 µM) | –
